Experiments:
[1] = system: EMG in B6 mice immunized with TAChR; assay: Subcutaneous tolerization, prevention protocol, EMG symptoms (Example IV); format: in vivo, mouse
Procedure: (§1) B6 mice (Jackson Laboratory, Bar Harbor, Me.) were injected s.c. with 100 μl of PBS containing increasing amounts of a pool of the same amount in weight of each of the three epitope peptides Tα150-169, Tα180-200 and Tα360-378 (‘peptide pool’), or 200 μg of Tα150-169 alone, or 100 μl of PBS containing 0.1% Triton X-100 and 10 μg of solubilized TAChR. Two different treatment schedules were used, referred to as prevention and post-priming protocols. In the prevention protocol, the peptides or solubilized TAChR were administered twice per week for 14 weeks, starting 2 weeks before the beginning of the immunization with TAChR. In the post-priming protocol, peptides or solubilized TAChR were administered twice per week for […], starting 8 weeks after the beginning of the TAChR immunization. Control mice received 100 μl of peptide-free PBS, following the same schedules.
(§2) Immunization 8-10 week old mice were immunized by s.c. injections, along the back and at the base of the tail, of TAChR (a total of 50 μg in 100 μl of PBS for each immunization) emulsified in an equal volume of CFA for the first injection, and IFA for the following two boosts. The mice were injected for a total of three times at 3-4 week intervals. At the end of the observation period, the mice received a third boost, and were sacrificed 5-7 days later. Control mice were injected with clean PBS in the appropriate adjuvant.
(§3) Evaluation of the symptoms of EMG The EMG symptoms were quantified using a forced exercise test sensitized by i.p. injection of a minute amount of pancuronium bromide (0.03 mg/kg) just before the test (Karachunski et al., 1995). The mouse hangs from a grid suspended above a soft padding, and the time it takes the mouse to fall three times (‘holding time’) was measured. The test is parametric, and gives a quantitative assessment of the mouse weakness. The myasthenic nature of the weakness was verified by injecting i.p. edrophonium chloride (Reversol, Organon, West Orange, N.J.), which is a cholinesterase inhibitor. […] The mice were tested without knowledge of their treatment.
The holding time of normal mice was 10.4±2.1 minutes (n=99). Mice with holding times of 8 minutes or longer were considered normal. Mice with holding times less than 6.2 minutes (the holding time of normal mice minus two SD) were considered to have fully developed EMG. Holding times of 6.2-8 minutes were considered to potentially indicate initial EMG. Normal or sham-immunized mice had occasionally holding times of 6.2-8 minutes, but never less than 6.2 minutes. Paralyzed mice and mice that died of respiratory paralysis are indicated as having holding time of 0 minutes.

[2] = system: established EMG in B6 mice; assay: Subcutaneous treatment, post-priming protocol, established EMG (Example IV); format: in vivo, mouse; conditions: at 44 weeks, s.c. post-priming protocol
Procedure: as §1, §2
as §3, with “treatment. […]” for “treatment.”

spleen CD4+ T-cells = assay: Lymphocyte proliferation assay, spleen CD4+ T-cells (Example IV); format: cell-based, mouse
Procedure: Lymphocyte proliferation assay. Five to seven days after the last TAChR immunization, CD4^+ T-cells (Bellone et al., 1991a) were purified from the pooled spleens of three to four mice that had received identical treatments. Irradiated (3000 rad) spleen cells from non-immunized mice were diluted as needed in RPMI-1640 (Gibco, Grand Island, N.Y.) supplemented with 10% heat inactivated fetal calf serum (Gibco), 50 μM 2-mercapto-ethanol, 1 mM L-glutamine, 10 mM HEPES, 1 mM sodium pyruvate, 100 U/ml penicillin and 100 μg/ml streptomycin (culture medium) and used as APC. The spleen CD4^+ T-cells (1×10^6/ml in culture medium, 100×1/well) were seeded in triplicate in 96 flat-bottom well plates containing 100×1 of 5×10^6/ml APC. One of the following Ag was added: 10 μg/ml PHA (Sigma); 5 or 10 μg/ml TAChR; 5 or 10 μg/ml of the individual epitope peptides. The concentrations of TAChR and epitope peptides are in the saturating range of the dose dependence curve (Bellone et al., 1991a), and yielded consistent results. Controls were triplicate wells containing CD4^+ cells and APC without any Ag, or with the control peptide (10 μg/ml). After 4 days the cells were labeled for 16 hours with ^3H-thymidine (1 μCi per well, specific activity 6.7 Ci/mmol, Dupont, Boston, Mass.) and harvested (Titertek, Skatron, Sterling, Va.). The ^3H-thymidine incorporation was measured by liquid scintillation, and represented the results as stimulation indexes (S.I.: the ratio between the cpm obtained in the presence of a given stimulus, and the average cpm obtained for non-stimulated control cultures).

[3] = s.c. 200 μg/injection, second experiment

peptide Tα150-169: synthetic peptide corresponding to residues 150-169 of the TAChR α subunit (TYDGTKVSISPESDRPDLST; UniProt P02710 174-193, looked up, fragment)
mice with EMG at 8 weeks [1, 3]: One mouse | prevention of EMG [1, 3]: prevented EMG effectively | holding times compared with sham-tolerized groups ([1]; s.c. prevention protocol): significantly longer holding times | mice with holding times of 6.2 or less [2]: 6% | response of CD4+ cells from sham-tolerized mice to the peptide (spleen CD4+ T-cells; TAChR-immunized B6 mice, 5 or 10 μg/ml): responded consistently | response to Tα150-169 of tolerized mice (spleen CD4+ T-cells; s.c. prevention protocol): never responded
